Laboratory results published in PubChem BioAssay AID330 (DTP/NCI, 2004).
“And” between values parts separate entries of the source, which are not always exact repeats. Identical values can stand only once. Inconclusive results and toxic doses are left out. The calls were made as follows: active = survival T/C of 150% or more; inactive = T/C below 125% in these data.

Tested on: P388 leukemia ip, CD2F1 mice, survival T/C
Assay: NCI In Vivo Anticancer Drug Screen. Data for tumor model P388 Leukemia (intraperitoneal) in CD2F1 (CDF1) mice
Conditions: endpoint: median survival time, higher = longer survival
In short: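 Mice carrying the transplanted tumor received test compound or vehicle. Survival was recorded in each group, and the value is the treated-group measurement divided by that of the vehicle-treated control group.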

[1] = dose: 50.0 mg/kg/injection, schedule: Q01DX005 (ip), vehicle: Klucel (hydroxypropylcellulose) (HPC)
[2] = dose: 100.0 mg/kg/injection, schedule: Q01DX005 (ip), vehicle: Klucel (hydroxypropylcellulose) (HPC)
[3] = dose: 200.0 mg/kg/injection, schedule: Q01DX005 (ip), vehicle: Klucel (hydroxypropylcellulose) (HPC)
[4] = dose: 25.0 mg/kg/injection, schedule: Q01DX009 (ip), vehicle: saline with Tween-80
[5] = dose: 50.0 mg/kg/injection, schedule: Q01DX009 (ip), vehicle: saline with Tween-80
[6] = dose: 100.0 mg/kg/injection, schedule: Q01DX009 (ip), vehicle: saline with Tween-80
[7] = dose: 200.0 mg/kg/injection, schedule: Q01DX009 (ip), vehicle: saline with Tween-80
[8] = dose: 12.5 mg/kg/injection, schedule: Q01DX009 (ip), vehicle: saline with Tween-80
[9] = dose: 60.0 mg/kg/injection, schedule: Q01DX005 (ip), vehicle: saline
[10] = dose: 120.0 mg/kg/injection, schedule: Q01DX005 (ip), vehicle: saline
[11] = dose: 240.0 mg/kg/injection, schedule: Q01DX005 (ip), vehicle: saline
[12] = dose: 60.0 mg/kg/injection, schedule: Q01DX005 (ip), vehicle: saline with Tween-80
[13] = dose: 120.0 mg/kg/injection, schedule: Q01DX005 (ip), vehicle: saline with Tween-80
[14] = dose: 240.0 mg/kg/injection, schedule: Q01DX005 (ip), vehicle: saline with Tween-80

Measured: T/C

c1ccc(-c2cc(Nc3ccc4c(c3)OCO4)c3cc4c(cc3n2)OCO4)cc1
inactive: [1] 101 % of control | [2] 101 % of control | [3] 97 % of control

O=[N+]([O-])c1ccc(-c2nc(/C=N/N3CCOCC3)cs2)s1
inactive: [4] 110 % of control | [5] 115 % of control | [6] 114 % of control

C/C(=N\N)c1cnc(NN)nc1C
inactive: dose: 7.5 mg/kg/injection, schedule: Q01DX005 (ip), vehicle: saline 106 % of control | dose: 15.0 mg/kg/injection, schedule: Q01DX005 (ip), vehicle: saline 103 % of control

CCOC(=O)C1C/C(=N\O)c2ccc(OC)c(OC)c2C1 (stereo not drawn)
inactive: dose: 25.0 mg/kg/injection, schedule: Q01DX009 (ip), vehicle: other 101 % of control | dose: 50.0 mg/kg/injection, schedule: Q01DX009 (ip), vehicle: other 91 % of control | dose: 100.0 mg/kg/injection, schedule: Q01DX009 (ip), vehicle: other 93 % of control | dose: 200.0 mg/kg/injection, schedule: Q01DX009 (ip), vehicle: other 97 % of control | dose: 400.0 mg/kg/injection, schedule: Q01DX009 (ip), vehicle: other 100 % of control

CCNc1nc(Cl)nc(NC(C)C)n1
inactive: dose: 50.0 mg/kg/injection, schedule: Q04DX003 (ip), vehicle: saline with Tween-80 91 % of control | dose: 100.0 mg/kg/injection, schedule: Q04DX003 (ip), vehicle: saline with Tween-80 87 % of control | dose: 200.0 mg/kg/injection, schedule: Q04DX003 (ip), vehicle: saline with Tween-80 91 % of control

CC(=O)Nc1ccc(/C=N/NC(=O)CNC(=O)Nc2cccc(Cl)c2Cl)cc1
inactive: [4] 99 % of control | [5] 97 % of control | [6] 89 % of control | [7] 93 % of control

COc1ccc2c(c1OC)C(=C(C#N)C#N)N1CCc3cc4c(cc3C1=C2)OCO4
inactive: dose: 0.63 mg/kg/injection, schedule: Q01DX009 (ip), vehicle: distilled water + Tween-80 103 % of control | dose: 1.25 mg/kg/injection, schedule: Q01DX009 (ip), vehicle: distilled water + Tween-80 94 % of control | dose: 2.5 mg/kg/injection, schedule: Q01DX009 (ip), vehicle: distilled water + Tween-80 112 % of control | dose: 5.0 mg/kg/injection, schedule: Q01DX009 (ip), vehicle: distilled water + Tween-80 112 % of control | dose: 10.0 mg/kg/injection, schedule: Q01DX009 (ip), vehicle: distilled water + Tween-80 108 % of control | dose: 20.0 mg/kg/injection, schedule: Q01DX009 (ip), vehicle: distilled water + Tween-80 121 % of control

COCCOCn1cccc1Cc1ccc(OC)cc1
inactive: dose: 100.0 mg/kg/injection, schedule: Q01DX001 (ip), vehicle: distilled water + Tween-80 + alcohol 100 % of control | dose: 200.0 mg/kg/injection, schedule: Q01DX001 (ip), vehicle: distilled water + Tween-80 + alcohol 105 % of control | dose: 400.0 mg/kg/injection, schedule: Q01DX001 (ip), vehicle: distilled water + Tween-80 + alcohol 96 % of control

N#CCCN(C(=O)Nc1ccc(Cl)c(Cl)c1)C1CCCCC1
inactive: [8] 98 % of control | [4] 101 % of control and 104 % of control | [5] 100 % of control and 103 % of control | [6] 91 % of control and 97 % of control

CC(C)CC(NC(=O)C(Cc1ccccc1)NC(=O)OCCc1ccccn1)C(=O)OC(C)(C)C (stereo not drawn)
inactive: [9] 101 % of control | [10] 95 % of control | [11] 87 % of control

CC(C)(C)/C(=N\NC(=O)CCCl)c1ccccc1
inactive: [5] 97 % of control | [6] 97 % of control | [7] 95 % of control

CCN1C=C/C(=C\C=C/c2cc[n+](CC)c3ccccc23)c2ccccc21
inactive: dose: 0.15 mg/kg/injection, schedule: Q04DX003 (ip), vehicle: saline 118 % of control | dose: 0.22 mg/kg/injection, schedule: Q04DX003 (ip), vehicle: saline 118 % of control | dose: 0.33 mg/kg/injection, schedule: Q04DX003 (ip), vehicle: saline 122 % of control

COc1cc(C2c3c(oc4ccccc4c3=O)Oc3oc4ccccc4c(=O)c32)cc(OC)c1OC
inactive: [12] 86 % of control | [13] 87 % of control

COc1ccc(C2CN(C(=O)c3ccccc3)N=C(c3ccccc3)O2)cc1 (stereo not drawn)
inactive: [1] 100 % of control | [2] 101 % of control | [3] 94 % of control

CS(=N)(=O)CCC(N)C(=O)O (stereo not drawn) (tested in a mixture with another compound)
inactive: dose: 25.0 mg/kg/injection, schedule: Q01DX001 (ip), vehicle: saline 100 % of control | dose: 50.0 mg/kg/injection, schedule: Q01DX001 (ip), vehicle: saline 105 % of control | dose: 100.0 mg/kg/injection, schedule: Q01DX001 (ip), vehicle: saline 105 % of control

Cn1c(O)c(N=O)c(=O)n(C)c1=O
inactive: [4] 105 % of control | [5] 100 % of control | [6] 111 % of control

O=c1cc(CBr)c2ccccc2[nH]1
inactive: dose: 6.25 mg/kg/injection, schedule: Q01DX009 (ip), vehicle: saline with Tween-80 95 % of control | [8] 95 % of control | [4] 86 % of control

CN(C=O)/C=C1\CC(OO)NC1=O (stereo not drawn)
inactive: [9] 100 % of control | [10] 101 % of control | [11] 103 % of control

CCCCCCCCC(=O)c1c(OC)oc(/C=N/NC(N)=O)cc1=O
inactive: dose: 25.0 mg/kg/injection, schedule: Q01DX009 (ip), vehicle: Klucel (hydroxypropylcellulose) (HPC) 92 % of control | dose: 50.0 mg/kg/injection, schedule: Q01DX009 (ip), vehicle: Klucel (hydroxypropylcellulose) (HPC) 89 % of control | dose: 100.0 mg/kg/injection, schedule: Q01DX009 (ip), vehicle: Klucel (hydroxypropylcellulose) (HPC) 92 % of control | dose: 200.0 mg/kg/injection, schedule: Q01DX009 (ip), vehicle: Klucel (hydroxypropylcellulose) (HPC) 91 % of control

COc1ccc(C(=O)NCCN2CCN3Cc4[nH]c5ccccc5c4CC3C2)cc1 (stereo not drawn)
inactive: dose: 25.0 mg/kg/injection, schedule: Q01DX001 (ip), vehicle: saline with Tween-80 95 % of control | dose: 50.0 mg/kg/injection, schedule: Q01DX001 (ip), vehicle: saline with Tween-80 97 % of control | dose: 100.0 mg/kg/injection, schedule: Q01DX001 (ip), vehicle: saline with Tween-80 95 % of control and 98 % of control

C=C(C)C(=NC(C)C)Nc1ccccc1
inactive: dose: 6.25 mg/kg/injection, schedule: Q01DX005 (ip), vehicle: Klucel (hydroxypropylcellulose) (HPC) 103 % of control and 104 % of control | dose: 12.5 mg/kg/injection, schedule: Q01DX005 (ip), vehicle: Klucel (hydroxypropylcellulose) (HPC) 107 % of control and 123 % of control and 96 % of control | dose: 25.0 mg/kg/injection, schedule: Q01DX005 (ip), vehicle: Klucel (hydroxypropylcellulose) (HPC) 99 % of control and 104 % of control and 106 % of control

Cc1nn(-c2ccccc2)nc1C(=O)Nc1ccccc1C(=O)NCC1CC1
inactive: [12] 91 % of control | [13] 90 % of control and 94 % of control and 96 % of control | [14] 103 % of control and 95 % of control and 96 % of control

COC(=O)C1C(O)C(C)C(O)C(C)(O)/C=C/C=C(C)C(=O)Nc2c(C)c(OC(C)=O)c3c(c2O)C(=O)C(C)=C2OCOC(=C23)C(C)=CC(C)(O)C(O)C(C)C1OC(C)=O (stereo not drawn)
inactive: [12] 95 % of control | [13] 105 % of control | [14] 108 % of control

C[n+]1noc([O-])c1-c1ccccc1
inactive: [5] 102 % of control | [6] 104 % of control

CCN(CC)CCCC(C)Nc1ccc2ccc(Cl)cc2n1 (stereo not drawn)
inactive: dose: 50.0 mg/kg/injection, schedule: Q01DX005 (ip), vehicle: saline + Tween-80 + alcohol 101 % of control | dose: 100.0 mg/kg/injection, schedule: Q01DX005 (ip), vehicle: saline + Tween-80 + alcohol 101 % of control | dose: 200.0 mg/kg/injection, schedule: Q01DX005 (ip), vehicle: saline + Tween-80 + alcohol 100 % of control

CC1CCOBO1 (stereo not drawn)
inactive: dose: 100.0 mg/kg/injection, schedule: Q04DX002 (ip), vehicle: Klucel (hydroxypropylcellulose) (HPC) 98 % of control | dose: 200.0 mg/kg/injection, schedule: Q04DX002 (ip), vehicle: Klucel (hydroxypropylcellulose) (HPC) 101 % of control | dose: 400.0 mg/kg/injection, schedule: Q04DX002 (ip), vehicle: Klucel (hydroxypropylcellulose) (HPC) 98 % of control
